# Patent publication US20150025077A1 (COYOTE PHARMACEUTICALS, INC., priority 2012, published 2015)
# Like-named read-outs stand apart in the source and are kept apart here.
# Key:
# Sprague-Dawley rats = test: Kainic acid induced neurodegeneration and seizure behaviors in rats (Examples 20, 21); format: in vivo, rat; settings: oral
# From the text: Seizure behaviors were observed and scored (Ref. R. J. Racine, Modification of seizure activity by electrical stimulation: II. Motor seizure, Electroencephalogr. Clin. […] Modifications were made for the methods). Brain tissues of rats were sectioned on histology slides, and neurons in hippocampus tissues were stained by Nissl. Neurons in dentate gyrus tissues damaged by Kainic acid were quantified. The Memantine composition used in comparison refers to a commercially available NMDA receptor […]. […] Seizure behaviors were observed and scored (Ref. R. J. Racine, Modification of seizure activity by electrical stimulation: II. Motor seizure, Electroencephalogr. Clin. […] Modifications were made for the methods). Brain tissues of rats were sectioned on histology slides, and neurons in hippocampus tissues were stained by Nissl. Neurons damaged by Kainic acid and behavior scores were quantified.
# [1] = test system: Rat primary motor neurons; test: Axon extension of rat primary motor neurons; format: cell-based; settings: 72 hrs; read-out: EC50 (cells extending axons)
# Procedure: Rat primary motor neurons were isolated from embryonic spinal cords in accordance with the method of Henderson et al.; J Cohen and G P Wilkin (ed.), Neural Cell Culture, (1995) p69-81 which is herein incorporated by reference in its entirety. Briefly, spinal cords were dissected from day 15 embryo (E15) and incubated in a trypsin solution, and followed by DNase treatment to release spinal cord cells from tissue fragments. The cell suspension was centrifuged to remove tissue fragments. Then motor neurons were enriched by density gradient centrifugation.
# Motor neurons were cultured in serum-free neurobasal medium containing insulin, forskolin, 3-isobutyl-1-methylxanthine, neurotrophic factors, Bovine serum albumin, selenium, transferrin, putrescine, progesterone and B27 supplement in tissue culture plate coated with poly-ornithine and laminin.
# Rat primary motor neurons were prepared and cultured as described in Example 13. […] The cells extending axons were counted in five different fields for each treatment after 72 hrs. Percentage of positive cells relative to total cells in the same magnification field was calculated and the results were expressed as means+/−standard deviations, n=5.
# HSP70 = HSP70 expression in neuro2A cells, western blot; format: cell-based, mouse; settings: for HSP70 western signal (absence of compounds = 1.00): 48 hours, GGTI-298
# Procedure: Differentiation was induced and cells incubated with geranylgeranyl transferase I inhibitor, GGTI-298. Cells were harvested and lysates were prepared and analyzed by western blot for HSP70 and HSP90. Western signals in the absence of the compounds were normalized as 1.00.
# [2] = test system: Mouse Neuro2A neuroblastoma cells; test: Neuro2A cells with neurites after GGTI-298 (Example 16); format: cell-based; settings: 10 μM
# Procedure: Mouse Neuro2A neuroblastoma cells were cultured in DMEM supplemented with 10% FBS for 24 hrs. […] Then differentiation was induced by retinoic acid in DMEM supplemented with 2% FBS. The cell culture was incubated with a Geranylgeranyl Transferase inhibitor, GGTI-298. After 24 hrs incubation, cells with neurites were counted.
# [3] = test system: Murine neuro2A neuroblastoma cells; test: Neurite outgrowth of neuro2A cells with GGTI-298 (Example 30); format: cell-based, mouse; settings: for Protection % / Median Counts (cells with neurite outgrowth) / ratio of counts relative to no inhibition: CNS-102/CNS-103 experiment; for Median Counts (cells with neurite outgrowth): no inhibition 60.3, PBS 18.5
# Procedure: Differentiation was induced and cells incubated with geranylgeranyl transferase I inhibitor, GGTI-298. After 24 h digital images were taken and neurite outgrowth was quantified. The comparisons of the neuroprotective effect of these three compounds are shown below.
# The estimated mean log10 counts, from five replicate wells for each treatment group were calculated by PROC GLM in SAS assuming a pooled estimate of variation.
# The estimated mean log 10 counts from five replicate wells for each treatment group were calculated by PROC GLM in SAS assuming a pooled estimate of variation.
# Differences in mean log(counts) between treatments for each concentration were calculated using PROC GLM in SAS. The p-value given is for the comparison of the estimated difference to zero, the expected difference value for no treatment effect. The anti-log of the differences represent the estimated ratio of counts (relative effect on inhibition) and are tabulated below along with the lower and upper 95% confidence intervals.
# Neuro2A cells = Neuro2A cells that extended neurites, with GGTI-298 (Example 18); format: cell-based; settings: 0.1-1 μM; vehicle 0.0-0.20
# From the text: After differentiation was induced, cells that extended neurites were counted.
# Rap1 = test: Prenylation of Rap1 in Neuro2A cells, western blotting; format: cell-based, mouse; settings: 100 nM; with GGTI-298; percentage of control (GGTI only)
# Procedure: Mouse neuroblastoma Neuro2A cells were cultured in DMEM supplemented with 10% FBS for 24 hrs. The cells were treated with 102GGA derivative compounds for 24 hrs first before GGTase inhibitor GGTI-298 was added to the culture medium for additional 24 hr incubation. […] Both un-prenylated and total Rap1 protein bands were quantified using Image J and normalized to their respective loading control GAPDH. The results for control and each compound treatment were calculated as the ratio of normalized un-prenylated Rap1 to total Rap1, and averaged from two biological repeats of one experiment. The final results were presented as a percentage of the control treatments (GGTI only) from the same batch experiment. The data shown in the chart were averaged from two repeats of one experiment and presented as the ratio of normalized un-prenylated Rap1 to total Rapt Compound ID numbers in table refer to structures in Table 1 and Table 2.
# [4] = test system: Mouse neuroblastoma Neuro2A cells; test: Rescue of amyloid-beta oligomer induced cytotoxicity in Neuro 2a cells (CellTiter-Glo); format: cell-based; settings: mouse/rat NG108-15, N2a, A-beta (O) together with compound 48 hr, normalized to A-beta (O) treated only, read-out: % viability vs. untreated
# Procedure: Preparation of amyloid-beta oligomer (A-beta (O)): Synthetic wild type A-beta (1-42) was purchased from American Peptide, and first dissolved with hexafluoroisopropanol (HFIP), then dried in the blowing tissue culture hood overnight to form a film in the eppendorf tube. The A-beta peptide film was first resuspended with DMSO to a concentration of 5 mM, further diluted with DMEM containing N2 supplement (Invitrogen) to achieve a concentration of 100 μM, and then sonicated in room temperature water bath for 10 minutes. The 100 μM peptide solution was then incubated at 4° C. for 24 hr and thoroughly vortexed before applied to cells.
# Mouse neuroblastoma Neuro2A cells were plated in 96-well plates and cultured in DMEM supplemented with 10% FBS for 24 hr. […] At the end of incubation, cells were harvested and subjected to viability assay using CellTiter-Glo Luminescent Cell Viability Assay Kit (Promega). […] Compound ID numbers in table refer to structures in Table 1 and Table 2.
# [5] = Katsuno et al., Proc. Natl. Acad. Sci. USA 2003; cited from earlier work
# [6] = Kp (ratio of AUCbrain to AUCplasma) of GGA in rat; format: in vivo; settings: brain, 4 h, 6 h, 8 h, and 10 h time points
# [7] = In-vivo PK of GGA oral formulations in rat; settings: plasma; for bioavailability: read-out: oral bioavailability (% F); for half-life: read-out: t½ (converted)
# Procedure: PK Parameters were calculated from noncompartmental analysis (NCA) model using WinNonlin software and the linear/log trapezoidal method.
# Parameters that requires 1z: Terminal Half-Life (t1/2)=ln(2)/lz. Calculated using Lambda_z method to find best fit. If necessary, the concentration-time points were manually selected for use in the calculation. Bolded-italicized concentrations indicate points used for calculation.
# SOD1 mice = test: CatWalk gait analysis in SOD1 mice; format: in vivo, mouse; set-up: Hind stride length, Mean/average: unit not given beside the values
# From the text: Prior to onset, there was little to no difference between the transgenic and wildtype groups. Transgenic animals tended to rely more on front paws for movement as weakness and paralysis in the hind paws progressed. This began to show around timepoint P100, coinciding with the expected onset of disease. This impairment was seen through changes in front and hind paw step cycle, print area, mean intensity, and base of support.
# [8] = GGA in 3% Hydroxypropyl Cellulose (Mn=10,262) aqueous suspension
# [9] = GGA in 3% Hydroxypropyl Cellulose (Mn=100,000) aqueous suspension
# [10] = GGA in 5% Gum Arabic aqueous suspension
# [11] = GGA in 5% Gum Arabic+3% Hydroxypropyl Cellulose (Mn=10,262) aqueous suspension
# [12] = GGA in 5% Gum Arabic+3% Hydroxypropyl Cellulose (Mn=100,000) aqueous suspension
smiles,measurement,setting,value
CC(=O)CC/C=C(/C)CC/C=C(\C)CC/C=C(\C)CCC=C(C)C [CNS-103],Mean of Hippocampus CA3 Neurons Damaged,Sprague-Dawley rats; 12 mg/Kg rat,8.16 Arbitrary units
same,Mean of Hippocampus CA3 Neurons Damaged,Sprague-Dawley rats; 25 mg/Kg rat,10.64 Arbitrary units
same,EC50,[1],9.49 nM
same,HSP70 western signal (absence of compounds = 1.00),HSP70; 100 nM,1.00
same,HSP70 western signal (absence of compounds = 1.00),HSP70; 1 μM,1.07
same,HSP70 western signal (absence of compounds = 1.00),HSP70; 10 μM,0.99
same,induction of HSP70 expression,HSP70; various concentrations,failed to induce expression of HSP70
same,Mean of cell numbers (cells with neurites),[2],0.195 Arbitrary units
same,Protection %,[3]; 10 nM,19.6%
same,Median Counts (cells with neurite outgrowth),[3]; 10 nM,26.7
same,ratio of counts relative to no inhibition,[3]; 10 nM,0.443
same,Protection %,[3]; 100 nM,25.8%
same,Median Counts (cells with neurite outgrowth),[3]; 100 nM,29.3
same,ratio of counts relative to no inhibition,[3]; 100 nM,0.486
same,Protection %,[3]; 1000 nM,24.4%
same,Median Counts (cells with neurite outgrowth),[3]; 1000 nM,28.7
same,ratio of counts relative to no inhibition,[3]; 1000 nM,0.476
same,Protection %,[3]; 10000 nM,−5.3%
same,Median Counts (cells with neurite outgrowth),[3]; 10000 nM,16.3
same,ratio of counts relative to no inhibition,[3]; 10000 nM,0.270
same,maximum protection,[3]; CNS-102/CNS-103 experiment (FIG. 4B),~26%
same,Mean of cell numbers (cells that extended neurites),Neuro2A cells,0.20-0.45 Arbitrary units
same,unprenylated/total RAP1 (%),Rap1,96%
CC(C)=CCC/C(C)=C/CC/C(C)=C/CCC(=O)C(C)C [Compound 101],viability at 1 µM,[4],126%
"CC(=O)CC/C=C(\C)CC/C=C(\C)CC/C=C(\C)CCC=C(C)C [GGA, geranylgeranyl acetone]",concentration of GGA required to exert a cytoprotective effect,[5],more than 600 mg per kg per day
same,Kp,[6],0.08 to 0.11
same,Tmax,[7]; [8],9.33 h
same,bioavailability,[7]; [8],35%
same,half-life,[7]; [8],18.7 h
same,Tmax,[7]; [9],8.66 h
same,bioavailability,[7]; [9],41.8%
same,half-life,[7]; [9],3.13 h
same,Tmax,[7]; [10],7.33 h
same,bioavailability,[7]; [10],37.3%
same,half-life,[7]; [10],3.43 h
same,Tmax,[7]; [11],13.3 h
same,bioavailability,[7]; [11],36.5%
same,half-life,[7]; [11],6.73 h
same,Tmax,[7]; [12],5.33 h
same,bioavailability,[7]; [12],58%
same,half-life,[7]; [12],10.2 h
"CC12CC3CC(C)(C1)CC(N)(C3)C2 [Memantine, reference compound]",Hippocampus dentate gyrus neurons damaged,"Sprague-Dawley rats; Kainic acid, vehicle 20.9",3.53 Arbitrary units
same,Seizure behaviors scores,"Sprague-Dawley rats; Kainic acid, vehicle 34",36.2
"Nc1nc2ccc(OC(F)(F)F)cc2s1 [Riluzole, reference compound]","Run Duration, Mean/average","SOD1 mice; P-42, SOD1/Vehicle 1.484746201",1.65
same,"Hind stride length, Mean/average","SOD1 mice; P-42, SOD1/Vehicle 6.359471205",6.337
same,"Swing speed, Mean/average","SOD1 mice; P-42, SOD1/Vehicle 45.8515272",43.07
same,"Run Duration, Mean/average","SOD1 mice; P-124 (+/−) 3, SOD1/Vehicle 3.461605345",3.113
same,"Hind stride length, Mean/average","SOD1 mice; P-124 (+/−) 3, SOD1/Vehicle 3.607909383",4.244
same,"Swing speed, Mean/average","SOD1 mice; P-124 (+/−) 3, SOD1/Vehicle 23.93413455",29.71
